Laboratory results: US9908908B2, “Tenofovir prodrug and pharmaceutical uses thereof” (Jiangsu Hansoh Pharmaceutical Co., Ltd., priority 2012, dated 2018)
Where two headings read alike, the source gives them in different places.

Key:
[1] = tested on: hepatitis B virus (HBV); experiment: In vitro anti-hepatitis B virus activity (HBV DNA-replication, dot blot); assay type: cell-based
Description: HepG 2.2.15 cell was used as the hepatitis B virus (HBV) vehicle to determine the inhibition effect of the compounds on DNA-replication of HBV.
Test method: HepG 2.2.15 cells were seeded into a 96-well culture plate. Various dilutions of test samples and positive control were added, respectively, after 24 hours, in which a cell control well was set. The medium was replaced with culture containing various dilutions of test samples after 72 hours. The supernatants and HepG 2.2.15 cells were collected after 6 days of culture.

[2] = Cytotoxicity test (CellTiter-Blue); assay type: cell-based; details: human; HepG 2.2.15 cells, 6 days of culture; read-out: Toxicity CC50
Description: (§1) Test method: HepG 2.2.15 cells were seeded into a 96-well culture plate and various dilutions of test samples and positive control were added, respectively. CellTiter-Blue (Promega, Catalog #G8081) was added for 6 days of culture.

[3] = Cytotoxicity in cells free of virus (anti-HIV test); assay type: cell-based; details: human
Description: (§2) 3) Cells for the cytotoxic detection were incubated in a 384-well plate for 3 days.
(§3) 6) Luminescent signal of the cells free of virus was detected to evaluate cytotoxicity after incubation for 3 days.
(§4) 7) The antiviral activity and cytotoxicity were calculated according to the following equation: Antiviral activity (%)=100−(Detection value−Maximum value)/(Minimum value−Maximum value)*100 Cytotoxicity (%)=100−(Detection value−Maximum value)/(Minimum value−Maximum value)*100 8) EC50 and CC50 were calculated with Fit Curve of Graphpad Prism 5 (the results are shown in Table 4).

[4] = background statement; cited from earlier work
[5] = Stability test in simulated gastric juice (pepsin, pH 2.0); assay type: physicochemical; details: for Change value / Purity after 6 hours: 37° C., 6 hours; for Initial purity: initial sample
Description: 10 ml of the stock solution and 500.0 mg of pepsin were transferred into a 50 mL volumetric flask and diluted with water to 50 ml, which was then subjected to ultrasound to dissolve the pepsin (the solution was not clear now) and then filtered to give a clear solution as simulated gastric juice.
5.0 mg of GS-7340 were transferred into a 5 mL volumetric flask and mixed with 2.5 mL of isopropyl alcohol to dissolve GS-7340, and then the simulated gastric juice was added to 5 mL. The solution was shaken well and filtered for using.
5.0 mg of compound Ia1 were transferred into a 5 mL volumetric flask and mixed with 2.5 mL of isopropyl alcohol to dissolve compound Ia1, and then the simulated gastric juice was added to 5 mL. The solution was shaken well and filtered for using.
(§5) The prepared sample was filled into the chromatography vial as the initial sample and immediately injected. Meanwhile, the rest of the samples were put into a 37° C. incubator, and were injected into the HPLC system after 6 hours.

[6] = Metabolic stability in fresh human whole blood and distribution test in PBMCs; assay type: in vitro ADME; details: for active metabolite-tenofovir detected in plasma (in words): after incubation with fresh human whole blood
Description: Different tenofovir prodrugs were incubated together with fresh human whole blood at 37° C. Plasma and PBMCs were separated, respectively, from the whole blood (Ficoll density gradient centrifugation method) after 1 hour and 2 hours incubation to determine the concentrations of prototype drug and metabolite-tenofovir in plasma and PBMCs. The PBMCs were counted via cell counter and each PBMC was treated as 200 fL to calculate intracellular drug concentration.
20 μL of internal standard solution (400 ng/mL SN-38 solution), […], methanol-water (50:50, v/v), and 200 μL acetonitrile were added to 100 μL plasma sample or PBMC sample, respectively. The mixture was mixed by vortex for 1 min and centrifuged for 5 min (14000 rpm). 20 μL supernatant and 180 μl mobile phase were mixed by vortex for 1 min, and 10 μL of the above mixture was injected into LC/MS/MS for analysis.

[7] = Stability test in acidic medium (hydrochloric acid solution pH 2.0); assay type: physicochemical; details: for Change value / Purity after 6 hours / Initial purity: Acid medium (pH = 2); for Change value / Purity after 6 hours: 37° C., 6 hours; for Initial purity: initial sample
Description: 4.5 mL of 36% hydrochloric acid was transferred into a 1 L volumetric flask and diluted with water to 1 L to prepare a stock solution. Then 10 mL of the above solution was transferred into a 50 mL volumetric flask and diluted with water to 50 mL to prepare the hydrochloric acid solution with pH 2.0.
5.0 mg of GS-7340 were transferred into a 5 mL volumetric flask and mixed with 2.5 mL of isopropyl alcohol to dissolve GS-7340, and then the hydrochloric acid solution (pH 2.0) was added to 5 mL. The solution was shaken well and filtered for using.
5.0 mg of compound Ia1 were transferred into a 5 mL volumetric flask and mixed with 2.5 mL of isopropyl alcohol to dissolve compound Ia1, and then the hydrochloric acid solution (pH 2.0) was added to 5 mL. The solution was shaken well and filtered for using.
as §5

[8] = tested on: HIV-1 (IIIb); experiment: microbe, parasite or virus in culture; assay type: cell-based
Description: 1) MT-2 cells were infected with HIV-1 (IIIb) to form multiplicity of infection (MOI) 0.01 TCID50 per cell.
2) The mixture of virus and cells was incubated in a 384-well plate for 3 days.
4) The supernatant was transferred to a new plate and incubated with reporter cells (HeLa) for 24 hours.
5) Detecting beta-GAL activity to evaluate anti-HIV activity.
as §4

[9] = tested on: HepG 2.2.15 cells; experiment: Cytotoxicity test (CellTiter-Blue); assay type: cell-based
Description: as §1

[10] = tested on: MT-2 cells; experiment: Cytotoxicity in cells free of virus (anti-HIV test); assay type: cell-based
Description: as §2, §3, §4

[11] = Hepatitis B virus, HepG2.2.15, 144 h
[12] = cells free of virus, 3 days, luminescent signal, read-out: Toxicity CC50
[13] = 0 hour, initial concentration, fresh human whole blood
[14] = 1 hour incubation at 37° C., in PBMCs
[15] = 1 hour incubation at 37° C., in plasma
[16] = 2 hour incubation at 37° C., in PBMCs
[17] = 2 hour incubation at 37° C., in plasma
[18] = Human immunodeficiency virus 1, IIIB, MT2, 72 h

| Compound | IC50 [1, 11] | CC50 at 6 days [2] | inhibitory effect on HBV-DNA replication (in words) ([1]; HepG 2.2.15 cells) | inhibitory effect on HBV-DNA replication compared with positive control GS7340 ([1]; HepG 2.2.15 cells) | cytotoxicity (in words) [9] | also measured |
| --- | --- | --- | --- | --- | --- | --- |
| CC(C)OC(=O)C(C)(C)N[P@@](=O)(CO[C@H](C)Cn1cnc2c(N)ncnc21)Oc1ccccc1 [Ia2] | 0.032 µM | > 10 µM |  |  |  |  |
| CC(C)OC(=O)[C@H](C)N[P@](=O)(CO[C@H](C)Cn1cnc2c(N)ncnc21)Oc1ccccc1 [GS-7340, reference compound] | 0.014 µM | > 10 µM |  |  |  | CC50 at 3 days [3, 12]: > 150 µM; metabolite-tenofovir detected in plasma [4]: 1-2%; total concentration of the active ingredient in PBMCs relative to tenofovir [4]: 30 times; total concentration of the active ingredient in PBMCs relative to tenofovir disoproxil [4]: 10 times; Change value [5]: 4.3%; Purity after 6 hours [5]: 94.4%; Initial purity [5]: 98.7%; Prototype concentration [6, 13]: 16.9 µM; Prototype concentration [6, 14]: 2448 µM; Prototype concentration [6, 15]: 14.5 µM; change of active metabolite-tenofovir concentration in PBMCs over the incubation time (in words) ([6]; 1 hour to 2 hours): almost the same; change of active metabolite-tenofovir released in plasma over the incubation time (in words) ([6]; 1 hour to 2 hours): increased significantly; Prototype concentration [6, 16]: 2357 µM; Prototype concentration [6, 17]: 13.0 µM; active metabolite-tenofovir detected in plasma (in words) [6]: certain active metabolite-tenofovir was detected; Change value [7]: 3.2%; Purity after 6 hours [7]: 95.5%; Initial purity [7]: 98.7%; EC50 [8, 18]: 0.012 µM |
| CC(C)OC(=O)C(C)(C)N[P@](=O)(CO[C@H](C)Cn1cnc2c(N)ncnc21)Oc1ccc(Cl)cc1 [Ic1] | 0.0053 µM | > 10 µM | significant inhibitory effect | better than that of the positive control GS7340 | without cytotoxicity |  |
| CC(C)OC(=O)C(C)(C)N[P@](=O)(CO[C@H](C)Cn1cnc2c(N)ncnc21)Oc1ccc(F)cc1 [Ii1] | 0.0083 µM | > 10 µM |  | better than that of the positive control GS7340 |  |  |
| COc1ccc(O[P@@](=O)(CO[C@H](C)Cn2cnc3c(N)ncnc32)NC(C)(C)C(=O)OC(C)C)cc1 [Id1] | 0.0062 µM | > 10 µM | significant inhibitory effect | better than that of the positive control GS7340 | without cytotoxicity |  |
| Cc1cccc(C)c1O[P@@](=O)(CO[C@H](C)Cn1cnc2c(N)ncnc21)NC(C)(C)C(=O)OC(C)C [Ih1] | 0.0059 µM | > 10 µM | significant inhibitory effect | better than that of the positive control GS7340 | without cytotoxicity |  |
| CC(C)OC(=O)[C@H](C)N[P@](=O)(CO[C@H](C)Cn1cnc2c(N)ncnc21)Oc1ccccc1 [GS-7171, reference compound] |  |  |  |  |  | IC50 ([1]; HepG 2.2.15 cells, 6 days of culture, HBV DNA-replication by dot blot, read-out: IC50): 0.035 µM; CC50 ([9]; 6 days of culture, read-out: Toxicity CC50): > 10 µM |
| CC(C)OC(=O)C1(N[P@](=O)(CO[C@H](C)Cn2cnc3c(N)ncnc32)Oc2ccccc2)CC1 [Ib1] | 0.015 µM | > 10 µM | significant inhibitory effect |  | without cytotoxicity |  |
| CC(C)OC(=O)C(C)(C)NP(=O)(CO[C@H](C)Cn1cnc2c(N)ncnc21)Oc1ccccc1 (some centres unmarked) [Ia] | 0.021 µM | > 10 µM |  |  |  |  |
| CC(C)OC(=O)OCOP(=O)(CO[C@H](C)Cn1cnc2c(N)ncnc21)OCOC(=O)OC(C)C [Tenofovir Disoproxil, reference compound] |  |  |  |  |  | CC50 at 3 days [3]: 16.9 µM; EC50 ([8]; Human immunodeficiency virus 1, MT2, 72 h, MT-2 cells infected with HIV-1 (IIIb), 3 days, read-out: EC50): 0.011 µM |
| CC(C)OC(=O)C(C)(C)N[P@](=O)(CO[C@H](C)Cn1cnc2c(N)ncnc21)Oc1ccccc1 [Ia1] | 0.005 µM | > 10 µM | significant inhibitory effect | better than that of the positive control GS7340 | without cytotoxicity | CC50 at 3 days [3, 12]: > 150 µM; cytotoxicity (in words) [10]: no cytotoxicity; Change value [5]: 0.5%; Purity after 6 hours [5]: 98.2%; Initial purity [5]: 98.7%; Prototype concentration [6, 13]: 12.4 µM; Prototype concentration [6, 14]: 1528 µM; Prototype concentration [6, 15]: 12.3 µM; change of active metabolite-tenofovir concentration in PBMCs over the incubation time (in words) ([6]; 1 hour to 2 hours): increased significantly; Prototype concentration [6, 16]: 1282 µM; Prototype concentration [6, 17]: 12.2 µM; concentration of active metabolite-tenofovir in PBMCs relative to GS-7340 ([6]; after incubation for 2 hours): about three times; active metabolite-tenofovir detected in plasma (in words) [6]: no active metabolite-tenofovir was detected; stability in plasma (in words) ([6]; fresh human whole blood, compared with GS-7340): significantly better than the positive control GS-7340; Change value [7]: 0.6%; Purity after 6 hours [7]: 98.1%; Initial purity [7]: 98.7%; stability compared to GS-7340 (in words) ([7]; acid medium and simulated gastric juice): significantly improved; inhibitory effect on HIV virus (in words) [8]: strong inhibitory effect; EC50 [8, 18]: 0.008 µM |
| CC(C)OC(=O)C(C)(C)N[P@](=O)(CO[C@H](C)Cn1cnc2c(N)ncnc21)Oc1ccc(C(F)(F)F)cc1 [Ij1] | 0.007 µM | > 10 µM | significant inhibitory effect | better than that of the positive control GS7340 | without cytotoxicity |  |
| CC(C)OC(=O)C(C)(C)N[P@](=O)(CO[C@H](C)Cn1cnc2c(N)ncnc21)Oc1cccc2ccccc12 [If1] | 0.0075 µM | > 10 µM | significant inhibitory effect | better than that of the positive control GS7340 | without cytotoxicity |  |
